From US11479802B2, “Assays for screening activity of modulators of members of the hydroxy steroid (17-beta) dehydrogenase (HSD17B) family” (Regeneron Pharmaceuticals, Inc., priority 2017, dated 2022)

Target: T1, human HSD17B13 (Homo sapiens, UniProt Q7Z5P4)
T1 sequence (Q7Z5P4 20-300): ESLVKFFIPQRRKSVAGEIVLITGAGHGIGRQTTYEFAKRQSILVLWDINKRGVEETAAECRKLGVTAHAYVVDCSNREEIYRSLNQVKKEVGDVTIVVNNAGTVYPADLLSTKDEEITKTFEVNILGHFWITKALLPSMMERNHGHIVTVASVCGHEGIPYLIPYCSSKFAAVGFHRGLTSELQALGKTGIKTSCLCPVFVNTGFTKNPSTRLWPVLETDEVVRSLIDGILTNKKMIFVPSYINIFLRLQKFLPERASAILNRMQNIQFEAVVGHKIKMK
Assay: Substrate screening of steroid and bioactive lipid libraries against purified recombinant HSD17B13 (NADH-linked luciferase assay)
Format: biochemical
Details: for HSD17B13 Enzymatic Activity Relative Light Units: 500 μM NAD+, 100 ng enzyme, 3 hours at 23° C.; for HSD17B13 Enzymatic Activity Percent Estradiol Control: normalized to 50 μM estradiol after subtraction of 5% DMSO
Method in brief: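 Substrates (bioactive lipids 5 μM, steroids 50 μM; 5% DMSO) tested with 500 μM NAD+ and 100 ng recombinant human HSD17B13 in 0.2 M Tris-HCl pH 7.5, 3 h, 23° C. Luminescent NADH detection followed 1 h later; RLU normalized to estradiol (50 μM, 100%) and DMSO (0%) controls.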

[1] = Bioactive Lipid Library, 5 μM bioactive lipid (Estradiol Control 50 μM)
[2] = Bioactive Lipid Library, 5 μM bioactive lipid

| SMILES | HSD17B13 Enzymatic Activity Relative Light Units [1] | HSD17B13 Enzymatic Activity Percent Estradiol Control [2] | HSD17B13 Enzymatic Activity Relative Light Units (Steroid Library, 50 μM steroid) | HSD17B13 Enzymatic Activity Percent Estradiol Control (Steroid Library, 50 μM steroid) |
| --- | --- | --- | --- | --- |
| C[C@@H](O)CCC[C@@H](O)/C=C/[C@H]1[C@H](O)CC(=O)[C@@H]1CCCCCCC(=O)O [15(R),19(R)-hydroxy Prostaglandin E1] | 333200 RLU | 3.96% | – | – |
| C[C@@H](O)CCC[C@@H](O)/C=C/[C@H]1[C@H](O)CC(=O)[C@@H]1C/C=C\CCCC(=O)O [15(R),19(R)-hydroxy Prostaglandin E2] | 346000 RLU | 4.97% | – | – |
| C[C@@H](O)CCC[C@@H](O)/C=C/[C@@H]1[C@@H](C/C=C\CCCC(=O)O)[C@@H](O)C[C@H]1O [15(R),19(R)-hydroxy Prostaglandin F2α] | 382720 RLU | 7.88% | – | – |
| CCCCC[C@@H](O)/C=C/C=C\CCCCCCCCCC(=O)O [15(R)-HEDE] | 1862960 RLU | 117.20% | – | – |
| CCCCC[C@@H](O)/C=C/C=C\C/C=C\C/C=C\CCCC(=O)O [15(R)-HETE] | 701120 RLU | 61.00% | – | – |
| CC(C)OC(=O)CCC/C=C\C[C@@H]1[C@@H](/C=C/[C@H](O)COc2cccc(C(F)(F)F)c2)[C@H](O)C[C@@H]1O [15(S)-Fluprostenol isopropyl ester] | 410960 RLU | 10.11% | – | – |
| CCCCC[C@H](O)/C=C/C=C\CCCCCCCCCC(=O)O [15(S)-HEDE] | 1060680 RLU | 57.54% | – | – |
| CC/C=C\C[C@H](O)/C=C/C=C\C/C=C\C/C=C\CCCC(=O)O [15(S)-HEPE] | 505240 RLU | 16.24% | – | – |
| CCCCC[C@H](O)/C=C/C=C\C/C=C\C/C=C\CCCC(=O)NCCO [15(S)-HETE Ethanolamide] | 535680 RLU | 19.97% | – | – |
| CCCCC[C@H](O)/C=C/C=C\C/C=C\C/C=C\CCCC(=O)O [15(S)-HETE] | 1107240 RLU | 24.49% | – | – |
| CCCCC[C@H](O)/C=C/C=C\C/C=C\CCCCCCC(=O)O [15(S)-HETrE] | 638320 RLU | 26.14% | – | – |
| CCCCC[C@@H](/C=C/C=C\CCCCCCCCCC(=O)O)OO [15(S)-HpEDE] | 232720 RLU | −4.02% | – | – |
| CC/C=C\C[C@@H](/C=C/C=C\C/C=C\C/C=C\CCCC(=O)O)OO [15(S)-HpEPE] | 316200 RLU | 2.18% | – | – |
| CCCCCC(=O)/C=C/C=C\CCCCCCCCCC(=O)O [15-OxoEDE] | 261480 RLU | −1.88% | – | – |
| CCCCCC(=O)/C=C/C=C\C/C=C\C/C=C\CCCC(=O)O [15-OxoETE] | 616120 RLU | −8.98% | – | – |
| CCCCC(C)(C)[C@H](O)/C=C/[C@H]1[C@H](O)CC(=O)[C@@H]1C/C=C\CCCC(=O)Oc1ccc(NC(=O)c2ccc(NC(C)=O)cc2)cc1 [16,16-dimethyl Prostaglandin E2 p-(p-acetamidobenzamido) phenyl ester] | 322280 RLU | 3.10% | – | – |
| CC1(C)[C@@H](O)CC[C@]2(C)[C@H]3C(=O)C=C4[C@@H]5C[C@@](C)(C(=O)O)CC[C@]5(C)CC[C@@]4(C)[C@]3(C)CC[C@@H]12 [18beta-Glycyrrhetinic acid] | – | – | 32720 RLU | −2.23% |
| C[C@@H](O)CCC[C@H](O)/C=C/[C@H]1C=CC(=O)[C@@H]1C/C=C\CCCC(=O)O [19(R)-hydroxy Prostaglandin A2] | 323320 RLU | 3.18% | – | – |
| C[C@@H](O)CCC[C@H](O)/C=C/[C@H]1[C@H](O)CC(=O)[C@@H]1CCCCCCC(=O)O [19(R)-hydroxy Prostaglandin E1] | 333160 RLU | 3.96% | – | – |
| C[C@@H](O)CCC[C@H](O)/C=C/[C@H]1[C@H](O)CC(=O)[C@@H]1C/C=C\CCCC(=O)O [19(R)-hydroxy Prostaglandin E2] | 347280 RLU | 5.07% | – | – |

| SMILES | HSD17B13 Enzymatic Activity Relative Light Units [1] | HSD17B13 Enzymatic Activity Percent Estradiol Control [2] | HSD17B13 Enzymatic Activity Relative Light Units (Steroid Library, 50 μM steroid) | HSD17B13 Enzymatic Activity Percent Estradiol Control (Steroid Library, 50 μM steroid) |
| --- | --- | --- | --- | --- |
| C[C@@H](O)CCC[C@H](O)/C=C/[C@@H]1[C@@H](CCCCCCC(=O)O)[C@@H](O)C[C@H]1O [19(R)-hydroxy Prostaglandin F1α] | 207560 RLU | −5.97% | – | – |
| C[C@@H](O)CCC[C@H](O)/C=C/[C@@H]1[C@@H](C/C=C\CCCC(=O)O)[C@@H](O)C[C@H]1O [19(R)-hydroxy Prostaglandin F2α] | 371400 RLU | 6.98% | – | – |
| O=C(CCC/C=C\C/C=C\C/C=C\C/C=C\CCCCCO)NCCO [20-HETE Ethanolamide] | 879760 RLU | 41.89% | – | – |
| O=C(O)CCC/C=C\C/C=C\C/C=C\C/C=C\CCCCCO [20-HETE] | 332640 RLU | 0.57% | – | – |
| O=C(O)CCC/C=C\C/C=C\C/C=C\C/C=C\CCCCCC(=O)O [20-carboxy Arachidonic Acid] | 293760 RLU | −2.36% | – | – |
| O=C(O)CCCC/C=C\C[C@@H](O)/C=C/C=C/C=C\[C@@H](O)CCCC(=O)O [20-carboxy Leukotriene B4] | 400440 RLU | 9.28% | – | – |
| O=C(O)CCC[C@H](O)\C=C/C=C/C=C/[C@H](O)C/C=C\CCCCCO [20-hydroxy Leukotriene B4] | 654120 RLU | 29.33% | – | – |
| O=C(O)CCC/C=C\C[C@H]1C(=O)C[C@@H](O)[C@@H]1/C=C/[C@@H](O)CCCCCO [20-hydroxy Prostaglandin E2] | 348240 RLU | 5.15% | – | – |
| O=C(O)CCC/C=C\C[C@@H]1[C@@H](/C=C/[C@@H](O)CCCCCO)[C@H](O)C[C@@H]1O [20-hydroxy Prostaglandin F2α] | 378680 RLU | 7.56% | – | – |
| C[C@]12C[C@H]3S[C@H]3C[C@@H]1CC[C@@H]1[C@@H]2CC[C@@]2(C)[C@H]1CC[C@@]2(C)O [(2a,3a,52,17b)-Androstan-17ol,2,3-epithio-17-methyl] | – | – | 100160 RLU | −1.06% |
| C[C@]12CCC(=O)C=C1CC[C@@H]1[C@@H]2[C@@H](O)C[C@]2(C=O)[C@@H](C(=O)CO)CC[C@@H]12 [Aldosterone] | – | – | 217400 RLU | 0.99% |
| C[C@]12CCC(=O)C[C@@H]1CC[C@@H]1[C@@H]2CC[C@]2(C)[C@@H](OC(=O)c3ccccc3)CC[C@@H]12 [Androstanolone 17-benzoate] | – | – | 217200 RLU | 0.99% |
| C[C@]12CCC(=O)C=C1CC[C@@H]1[C@@H]2CC[C@]2(C)C(=O)CC[C@@H]12 [Androstenedione] | – | – | 172400 RLU | 0.21% |
| O=c1cc(-c2ccc(O)cc2)oc2cc(O)cc(O)c12 [Apigenin] | – | – | 24440 RLU | −2.38% |
| CC[C@H](CC[C@@H](C)[C@H]1CC[C@H]2[C@@H]3CC=C4C[C@@H](O)CC[C@]4(C)[C@H]3CC[C@]12C)C(C)C [Beta-sitosterol] | – | – | 168880 RLU | 0.14% |
| CCCCC[C@H](O)/C=C/[C@@H]1[C@H]2C/C(=C/CCCC(=O)O)C[C@H]2C[C@H]1O [Carbaprostacyclin] | 380280 RLU | 7.68% | – | – |
| CCCCC[C@H](O)/C=C/[C@H]1CC2CC(C2)[C@@H]1C/C=C\CCCC(=O)O [Carbocyclic Thromboxane A2] | 309000 RLU | 2.05% | – | – |
| CCCCC[C@H](O)/C=C/[C@H]1[C@H](O)C[C@]2(C)C/C(=C\CCCC(=O)[O-])C[C@H]12.CCCCC[C@H](O)/C=C/[C@H]1[C@H](O)C[C@]2(C)C/C(=C\CCCC(=O)[O-])C[C@H]12.[Ca+2] [Ciprostene (calcium salt)] | 360560 RLU | 6.12% | – | – |
| C[C@]12C[C@H](O)[C@H]3[C@@H](CCC4=CC(=O)CC[C@@]43C)[C@@H]1CC[C@@H]2C(=O)CO [Corticosterone] | – | – | 215320 RLU | 0.96% |
| C[C@]12CCC(=O)C=C1CC[C@@H]1[C@@H]2[C@@H](O)C[C@@]2(C)[C@H]1CC[C@]2(O)C(=O)CO [Cortisol] | – | – | 40080 RLU | −2.10% |
